Source: ChEMBL document CHEMBL1134667, “Physicochemical determinants of passive membrane permeability: role of solute hydrogen-bonding potential and volume” (J Med Chem, 2001)

Tests used:
[1] = Partition coefficient (logP) (heptane); settings: heptane/water
[2] = Partition coefficient (logP); settings: octanol/water
[3] = Partition coefficient (logP) (heptane/glycol); settings: heptane/ethylene glycol
[4] = Basolateral to apical effective permeability; settings: not told
[5] = Apical to basolateral effective permeability; settings: not told

Row | Compound | logP [1] | logP [2] | logP [3] | Papp B→A [4] | Papp A→B [5]
1 | CC(=O)N[C@H](CC1CCCCC1)C(=O)NCCc1ccccc1 | -0.9 | 3.13 | -3.41 | 58.4 ×10⁻⁶ cm/s | 58.3 ×10⁻⁶ cm/s
2 | CC(=O)N[C@H](Cc1ccccc1)C(=O)NCCc1ccccc1 | -2 | 2.32 | -3.7 | – | –
3 | CC(=O)NCC(=O)NCCc1ccccc1 | -3.73 | 0.48 | -5 | 20.6 ×10⁻⁶ cm/s | 21.9 ×10⁻⁶ cm/s

Results, then the compound that gave them:

Row | logP [1] | logP [2] | logP [3] | Papp B→A [4] | Papp A→B [5] | Compound
4 | -2.64 | 1.59 | -3.77 | – | – | CC(=O)N[C@@H](C(=O)NCCc1ccccc1)C(C)C
5 | -5.33 | 0.66 | -5.79 | 1.84 ×10⁻⁶ cm/s | 0.91 ×10⁻⁶ cm/s | CNC(=O)[C@@H](Cc1ccccc1)NC(=O)[C@H](NC(C)=O)C(C)C
